According to patent US20110300147A9, “Inhibiting tumor cell invasion, metastasis and angiogenesis” (The Scripps Research institute, priority 2005, published 2011):

Assays:
4T1 breast cells = assay: 4T1 experimental lung metastasis model; format: in vivo, BALB/c mice; conditions: AEPI-1 100 μg i.p. daily for two weeks
Procedure: A lung metastasis model was induced experimentally by injecting a cell suspension of 4T1 breast cells (1×10^5) suspended in 0.1 ml serum free medium into the tail vein of six-week-old female BALB/c mice. The mice were treated with 100-μl intraperitoneal injections of either PBS alone (control group) or LEG-3 (100 μg/100 μl) daily for two weeks.
4T1 Lung Experimental Metastasis was generated by suspending 4T1 cells (1×10^5) in 0.1 ml serum-free medium and injecting these cells into the tail vein of mice under the anesthesia. Treatment involved 100 μl intraperitoneal injection of either saline alone (control group) or AEPI-1 (treatment group). The AEPI-1 treatment group was given 100 μg AEPI-1 in saline (100 ul) by intraperitoneal injection daily for two weeks. All mice were euthanized by CO2 and lungs were removed, weighted and fixed in the Bouin's solution. Lung metastases were counted by anatomy microscope.

[1] = cytotoxicity of AEPI-1 in 293 cells expressing legumain; format: cell-based; conditions: human, 293 cells recombinantly expressing legumain; 293 cells that recombinantly expressed legumain
Procedure: (§1) To further evaluate the role of asparaginyl endopeptidases in angiogenesis, four asparaginyl endopeptidases inhibitors (AEPI) were tested using recombinant legumain in an amidolytic activity assay with fluorescent substrate. FIG. 4A graphically illustrates the effects that AEPI-1 to AEPI-4 (also referred to as legumain inhibitors LI-1 to LI-4) have on asparaginyl endopeptidase activity. […] No apparent cytotoxicity was observed until almost 100 μM AEPI-1 was used in these assays (FIG. 4B).

HUVEC = assay: endothelial cell invasion assay under hypoxia; format: cell-based, human; conditions: hypoxic conditions
Procedure: Cell invasion and mobility assays. Cell migration and invasion assays were performed as described with modifications (Albini et al., 1987). Stock solutions (15 mg/ml) of Matrigel basement membrane matrix (Becton Dickinson, Bedford, Mass.) were stored at −80° C. in 100 μl aliquots. After thawing on ice, the stock was diluted 1:50 with cold serum-free culture media and immediately applied to each membrane insert (8 μm pore) that formed the upper chambers of the multi-well invasion assay plate. The Matrigel was incubated overnight in a sterile laminar tissue culture hood. The membranes were hydrated for 2 hours with 250 μl of serum-free medium and excess medium was removed by aspiration. Medium containing 10% FBS was added to the bottom of each well. A suspension of 10^5 cells in 150 μl of serum-free medium was added to the upper chamber and incubated for 12 hours at 37° C., 5% CO2. At the indicated times, the membrane inserts were removed from the plate and the non-invading cells were removed from the upper surface. Membrane associated cells were stained with 0.09% crystal violet for 30 minutes and washed twice with PBS. The invading cells were counted microscopically. […]
The effect of AEPI-1 on endothelial cell function was assessed in vitro in a matrigel endothelial cell tube formation assay. […]

MDA-MB-231 cells = assay: MDA-MB-231 human mammary carcinoma model; format: in vivo, Balb C nu/nu mice; conditions: two weeks after tumor cell implantation
Procedure: The effect of AEPI-1 on tumor growth and invasion was then evaluated in a human mammary carcinoma model established in Balb C nu/nu mice. The MDA-MB-231 cells grew aggressively in vivo and formed a tumor that was similar to a human infiltrating ductal carcinoma with apparent glandular differentiation. The tumor locally invaded surrounding tissues and skeletal muscles.

breast cancer cells = assay: hypoxia induced breast cancer cell migration in vitro; format: cell-based
wild type 293 cells = assay: cytotoxicity of AEPI-1 in wild type 293 cells; format: cell-based, human; conditions: wild type and legumain-expressing 293 cells
Procedure: as §1

[2] = cytotoxicity of AEPI-1 in wild type 293 cells; format: cell-based, human; conditions: human, wild type 293 cells
Procedure: as §1

4T1 mammary carcinoma = assay: primary 4T1 tumor and spontaneous lung metastasis model; format: in vivo, BALB/c mice; conditions: AEPI-1 50 μg i.p. every two days for two weeks
Procedure: Primary 4T1 tumors are generated by subcutaneous injection of 5×10^5 4T1 cells in the right flank of six-week-old BALB/c mice. Two different groups of four animals were treated between days 9 and 27 after tumor induction. The treatments were 100-μl […] injections of PBS alone (control group) or LEG-3 100 μg/100 μl in PBS by intraperitoneal injection every two days for two weeks. Tumor volumes of treated animals were measured every two-day starting on day 9 by microcaliper measurements (volume=width×length×width/2). As soon as the tumor volume reached 1400 mm^3 in the control groups (on day 30th), euthanasia was performed and lungs were removed and fixed in the Bouin's solution. Lung metastases were counted by anatomy microscope. Statistical significance between treatment groups was determined by two-tailed Student's t tests using Microsoft EXCEL software.
Tumor induction was performed by subcutaneous injection of 5×10^5 4T1 cells in the right flank mammary fat pat of six-week-old BALB/c mice. […] Tumor volumes of treated animals were measured everyday starting on day 6 by micro-caliper measurements (volume=width×length×width/2). […] Lung metastases were counted by anatomy microscope. The statistical significance between treatment and control groups was determined by two-tailed Student's t tests using Microsoft EXCEL software.

[3] = tested on: mouse aorta vessel sprouts; assay: mouse aortic sprouting assay; format: cell-based
Procedure: The effects of AEPI-1 on angiogenesis were further evaluated in mouse aortic sprouting assays. First, AEPI-1 was added to the beginning of the experiment to determine its effect on initiation of vessel sprouts (FIG. 5A). […] In the second assay, AEPI-1 was added at the third day after aortic sprouts were already formed (FIG. 5B), to ascertain whether asparaginyl endopeptidase activity was required for continued extension of vessel growth.

## CCOC(=O)C1OC1C(=O)N(CC(N)=O)NC(=O)[C@H](C)NC(=O)[C@H](C)NC(=O)OCc1ccccc1 (stereo partly drawn) [AEPI-1, Cbz-Ala-Ala-AzaAsn-(S,S)-EPCOOEt]
4T1 breast cells
  experimental lung metastasis: inhibited experimental lung metastasis
[1]
  CC50: 430 µM
HUVEC
  hypoxia induced endothelial cell invasion: inhibited
MDA-MB-231 cells
  tumor differentiation into a more invasive form: blocked
  tumor growth: completely suppressed tumor growth
Breast cancer cells
  hypoxia induced breast cancer cell migration: inhibited
Wild type 293 cells
  concentration until which no apparent cytotoxicity was observed: ~100 µM
[2]
  CC50: 320 µM
4T1 mammary carcinoma
  growth of 4T1 mammary carcinoma: inhibits the growth
  spontaneous lung metastasis: inhibited spontaneous lung metastasis
[3]; AEPI-1 added at the beginning of the experiment
  FGF-2 induced vessel sprouts (initiation): inhibited FGF-2 induced vessel sprouts in a dose dependent manner
[3]; AEPI-1 added at the third day after aortic sprouts were formed
  extension of established vascular outgrowth: significantly reduced
